Test results published in patent US20090220435A1, “TIGHT JUNCTION MODULATING PEPTIDE COMPONENTS FOR ENHANCING MUCOSAL DELIVERY OF THERAPEUTIC AGENTS” (priority 2005, published 2009).
Read-outs that look alike come from different tables or passages of the source.

Key:
[1] = Drug permeation (Papp) in the in vitro epithelial tissue model; settings: human, pH 5, Papp
From the text: (§1) A. A “kit” of 24 EpiAirway™ units can routinely be employed for evaluating five different formulations, each of which is applied to quadruplicate wells. Each well is employed for determination of permeation kinetics (4 time points), transepithelial electrical resistance (TER). An additional set of wells is employed as controls, which are sham treated during determination of permeation kinetics, but are otherwise handled identically to the test sample-containing units for determinations of transepithelial resistance and viability.
(§2) B. In all experiments, the mucosal delivery formulation to be studied is applied to the apical surface of each unit in a volume of 100 μL, which is sufficient to cover the entire apical surface. An appropriate volume of the test formulation at the concentration applied to the apical surface (no more than 100 μL is generally needed) is set aside for subsequent determination of concentration of the active material by ELISA or other designated assay.
(§3) D. In order to minimize potential sources of error and avoid any formation of concentration gradients, the units are transferred from one 0.9 mL-containing well to another at each time point in the study. These transfers are made at the following time points, based on a zero time at which the 100 μL volume of test material was applied to the apical surface: 15 minutes, 30 minutes, 60 minutes, and 120 minutes.
(§4) F. At the completion of each time point, the medium is removed from the well from which each unit was transferred, and aliquotted into two tubes (one tube receives 700 μL and the other 200 μL) for determination of the concentration of permeated test material and, in the event that the test material is cytotoxic, for release of the cytosolic enzyme, lactate dehydrogenase, from the epithelium. These samples are kept in the refrigerator if the assays are to be conducted within 24 hours, or the samples are subaliquotted and kept frozen at −80° C. until thawed once for assays. Repeated freeze-thaw cycles are to be avoided.
(§5) EIA kit (p/n S-1178(EIAH6101) was purchased from Peninsula Laboratories Inc. (Division of BACHEM, San Carlos, Calif., 800-922-1516). 17×120 mm polypropylene conical tubes (p/n 352097, Falcon, Franklin Lakes, N.J.) were used for all sample preparations. Eight standards were used for PTH quantitation. The rest of the assay procedure was the same as the kit inserts.
(§6) The instant study was designed to evaluate the effect of PN159 itself or in combination with additional permeation enhancers on PTH permeation. The PN159 concentrations evaluated are 25, 50, and 100 μM. The additional permeation enhancers are 45 mg/ml M-β-CD, 1 mg/ml DDPC, and 1 mg/ml EDTA. Sorbitol was used as a tonicifier (146-190 mM) to adjust the osmolarity of formulations to 220 mOsm/kg. The formulation pH was fixed at 4.5. PTH was chosen as a model peptide in this example. 2 mg/ml PTH was combined with PN159 with or without additional permeation enhancers. The combination was tested using an in vitro epithelial tissue model to monitor PTH permeation, transepithelial electrical resistance (TER), and the cytotoxicity of the formulation by LDH assay.
(§7) The concentrations of MC-4RA in the basolateral media was analyzed by the RP-HPLC using a C18 RP chromatography with a flow rate of 1 mL/minute and a column temperature of 25° C. • Solvent A: 0.1% TFA in water; Solvent B: 0.1% TFA in ACN • Injection Volume: 50 μL • Detection: 220 nm • RUN TIME: 15 MIN
(§8) Galantamine concentration in the formulation and in the basolateral media (permeation samples) was determined using an isocratic LC (Waters Alliance) method with UV detection. • Column: Waters Symmetry Shield, C18, 5 um, 25×0.46 cm • Mobile phase: 5% ACN in 50 mM ammonium formate, pH 3.0 • Flow rate: 1 ml/min • Column temperature: 30° C. • Calibration curve: 0-400 μg/ml Galantamine HBr • Detection: UV at 285 nm

[2] = test system: in vitro epithelial tissue model (EpiAirway™); test: as above
From the text: as §1, §2, §3, §4, §5, §6, §7, §8

[3] = test system: EpiAirway™ human-derived tracheal/bronchial epithelial cells; test: Cytotoxicity (LDH assay); assay type: cell-based; settings: for LDH15: 15 minute treatment at the peptide's optimal concentration; for LDH60: 60 minute treatment at the peptide's optimal concentration
Protocol: The amount of cell death was assayed by measuring the loss of lactate dehydrogenase (LDH) from the cells using a CytoTox 96 Cytoxicity Assay Kit (Promega Corp., Madison, Wis.). Fifty microliters of sample was loaded into a 96-well assay plates. Fresh, cell-free culture medium was used as a blank. 50 μl of substrate solution was added to each well and the plates incubated for 30 minutes at room temperature in the dark. Following incubation, 50 μl of stop solution was added to each well and the plates read on an optical density plate reader at 490 nm.
The amount of cell death will be assayed by measuring the loss of lactate dehydrogenase (LDH) from the cells using a CytoTox 96 Cytotoxicity Assay Kit (Promega Corp., Madison, Wis.). Fifty microliters of sample will be loaded into a 96-well assay plates. Fresh, cell-free culture medium will be used as a blank. Fifty microliters of substrate solution will be added to each well and the plates incubated for 30 minutes at room temperature in the dark. Following incubation, 50 μl of stop solution will be added to each well and the plates read on an optical density plate reader at 490 nm. The measurement of LDH release into the basolateral media indicates relative cytotoxicity of the samples. One hundred percent lysis of control inserts with 0.3% Octylphenolpoly(ethyleneglycolether)×(TritonX-100) allows LDH values to be expressed as percentage of total lysis.
In some embodiments, The amount of cell death was assayed by measuring the release of lactate dehydrogenase (LDH) from the cells into the apical medium using a CytoTox 96 Cytotoxicity Assay Kit (Promega Corp., Madison, Wis.). One percent Octylphenolpoly (ethyleneglycolether)×(Triton X-100™) diluted in phosphate buffered saline (PBS) causes 100% lysis in cultured cells and served herein as a positive control for the LDH assay. Following the one hour incubation period with a test formulation (refer to Table 24 of Example 25 for details of test formulations), the total liquid volume of each insert was brought to a final volume of 200 μl with culture medium. The apical medium was then mixed by pipetting four times with a multichannel pipette set to a 100 μl volume. After mixing, a 100 μl sample from the apical side of each insert was transferred to a new 96-well plate. The apical media samples were sealed with a plate sealer and stored at room temperature for same day analysis or stored overnight at 4° C. for analysis the next day. To measure LDH levels, 5 μl of the 100 μl apical media sample was diluted in 45 μl DPBS in a new 96-well plate. Fresh, cell-free culture medium will be used as a blank. Fifty microliters of substrate solution was added to each well and incubated for 30 minutes at room temperature away from direct light. Following the 30 minute incubation, 50 μl of stop solution was added to each well. Optical density (OD) was measured at 490 nm with a uQuant absorbance plate reader from Biotek Instruments. The measurement of LDH release into the apical media indicates relative cytotoxicity of the samples. Percent cytotoxicity for each test formulation was calculated by subtracting the measured absorbance of the PBS control (basal level of LDH release) from the measured absorbance of the individual test formulation and then dividing that value by the measured absorbance for the 1% Triton X-100™ positive control, multiplied by 100.
An LDH assay was used to assess the cytotoxicity of the treatments. The LDH level was determined by CytoTox96 Non-Radioactive Cytotoxic Assay (Promega, Madison, Wis.) following the manufacturer's protocol. For basal-lateral LDH levels, triplicates of 50 ul of the basal medium were used to determine the LDH level. For apical LDH level, 150 ul of the diluted apical sample was removed by adding 150 ul of Epi-CM to the apical chamber, the medium was mixed by pipeting up and down, and 150 ul medium was removed and diluted 2× (for a final 8-fold dilution) for assay in triplicates of 50 ul.

[4] = test system: EpiAirway™ human-derived tracheal/bronchial epithelial cells; test: Transepithelial electrical resistance (TER) across EpiAirway epithelial cell layer; assay type: cell-based
[5] = test system: EpiAirway™ human-derived tracheal/bronchial epithelial cells; test: TER recovery after peptide treatment; assay type: cell-based; settings: among all TJMPs tested
[6] = [PN159] 0 μM, galantamine 40 mg/mL pH 5.0, calcitonin 1 mg/mL pH 3.5, PTH1-34 1 mg/mL pH 4.5, PYY3-36 1 mg/mL pH 5.0
[7] = [PN159] 25 μM, galantamine 40 mg/mL pH 5.0, calcitonin 1 mg/mL pH 3.5, PTH1-34 1 mg/mL pH 4.5, PYY3-36 1 mg/mL pH 7.0
[8] = [PN159] 100 μM, galantamine 40 mg/mL pH 5.0, calcitonin 1 mg/mL pH 3.5, PTH1-34 1 mg/mL pH 4.5, PYY3-36 1 mg/mL pH 7.0

Molecule | Papp [2, 6] [×10⁻⁶ cm/s] | LDH15 [3] | LDH60 [3] | TER reduction ([4]; 10 μM peptide) [%] | TER reduction ([4]; 25 μM peptide) [%] | TER reduction ([4]; 100 μM peptide) [%] | TER recovery time [5] | TER reduction ([4]; 500 μM peptide) [%] | other results
COc1ccc2c3c1O[C@H]1C[C@@H](O)C=C[C@@]31CCN(C)C2 [Galantamine, galantamine] | 2.1 | – | – | – | – | – | – | – | Papp A→B at 120 min, 40 mg/mL [1, 6]: ~2.1 ×10⁻⁶ cm/s; Papp A→B at 120 min, 40 mg/mL [1, 7]: 5.1 ×10⁻⁶ cm/s; Papp A→B at 120 min, 40 mg/mL ([1]; [PN159] 50 μM, galantamine 40 mg/mL pH 5.0, calcitonin 1 mg/mL pH 3.5, PTH1-34 1 mg/mL pH 4.5): 6.2 ×10⁻⁶ cm/s; Papp A→B at 120 min, 40 mg/mL [1, 8]: 7.2 ×10⁻⁶ cm/s; fold increase in Papp in the presence of PN159 ([2]; PN159 25-100 vs drug alone): 2.5-3.5 fold
CC[C@H](C)[C@H](NC(=O)[C@H](CCCCN)NC(=O)[C@H](CCCCN)NC(=O)[C@H](C)NC(=O)[C@H](CC(C)C)NC(=O)[C@H](C)NC(=O)[C@H](C)NC(=O)[C@H](CC(C)C)NC(=O)[C@H](C)NC(=O)[C@H](CCCCN)NC(=O)[C@H](CC(C)C)NC(=O)[C@H](CC(N)=O)NC(=O)[C@@H](NC(=O)[C@H](CCCCN)NC(=O)CNC(=O)[C@H](CC(C)C)NC(=O)[C@H](CC(C)C)NC(=O)[C@H](Cc1ccc(O)cc1)NC(=O)CNC(=O)[C@H](C)NC(=O)[C@H](CO)NC(=O)[C@H](CC(N)=O)NC(=O)[C@H](CC(C)C)NC(=O)[C@@H](NC(=O)[C@H](Cc1c[nH]c2ccccc12)NC(=O)CN)[C@@H](C)O)[C@@H](C)CC)C(=O)N[C@@H](CC(C)C)C(N)=O [PN161] | – | 0.0017 | 0.01 | 43 | 73 | 84 | fastest recovery time | – | TER reduction ([4]; 2.5 μM peptide): 11%
CC[C@H](C)[C@H](NC(=O)[C@H](CCC(=O)O)NC(=O)[C@H](CO)NC(=O)[C@@H](NC(=O)[C@@H](N)CO)C(C)C)C(=O)N[C@@H](CCC(N)=O)C(=O)N[C@@H](CC(C)C)C(=O)N[C@@H](CCSC)C(=O)N[C@@H](Cc1cnc[nH]1)C(=O)N[C@@H](CC(N)=O)C(=O)N[C@@H](CC(C)C)C(=O)NCC(=O)N[C@@H](CCCCN)C(=O)N[C@@H](Cc1cnc[nH]1)C(=O)N[C@@H](CC(C)C)C(=O)N[C@@H](CC(N)=O)C(=O)N[C@@H](CO)C(=O)N[C@@H](CCSC)C(=O)N[C@@H](CCC(=O)O)C(=O)N[C@@H](CCCN=C(N)N)C(=O)N[C@H](C(=O)N[C@@H](CCC(=O)O)C(=O)N[C@@H](Cc1c[nH]c2ccccc12)C(=O)N[C@@H](CC(C)C)C(=O)N[C@@H](CCCN=C(N)N)C(=O)N[C@@H](CCCCN)C(=O)N[C@@H](CCCCN)C(=O)N[C@@H](CC(C)C)C(=O)N[C@@H](CCC(N)=O)C(=O)N[C@@H](CC(=O)O)C(=O)N[C@H](C(=O)N[C@@H](Cc1cnc[nH]1)C(=O)N[C@@H](CC(N)=O)C(=O)N[C@@H](Cc1ccccc1)C(=O)O)C(C)C)C(C)C [PTH1-34, human parathyroid hormone 1-34] | 0.11 | – | – | – | – | – | – | – | fold increase in Papp in the presence of PN159 [2]: 3-5 fold; Papp [2, 7]: 0.34 ×10⁻⁶ cm/s; Papp [2, 8]: 0.43 ×10⁻⁶ cm/s
H-LLETLLKPFQCRICMRNFSTRQARRNHRRRHRR-NH2 (cysteine pairing not given here) [PN202] | – | 0.0011 | 0.02 | 3 | – | 95 | fastest recovery time | 95 | TER reduction ([4]; 50 μM peptide): 57%
H-RRRQRRKRGGDIMGEWGNEIFGAIAGFLG-NH2 [PN250] | – | 0.0016 | 0.031 | 3 | 17 | 58 | fastest recovery time | 84 | TER reduction ([4]; 250 μM peptide): 79%
